# US20160038532A1, “Treatment of Multiple Sclerosis With Combination of Laquinimod and Glatiramer Acetate” (TEVA PHARMACEUTICAL INDUSTRIES, LTD., priority 2011, published 2016)
# “And” between values parts separate entries of the source, which are not always exact repeats. Identical values can stand only once.
# How the values were obtained:
# MSCH-induced EAE = MSCH-induced EAE in CSJL mice (Example 2.7); type: in vivo, CSJL/F1 mice
# MOG-induced EAE = MOG-induced EAE with GA blocking and s.c. daily GA (Example 2.4); type: in vivo, C57B1 mice; design: key to MMS value / GMS value: clinical score per grading system; 1+ = sick, 5 = dead/killed
# Protocol: The C57B1 strain of mouse was selected, as it is an established EAE model.
# Laquinimod was administered daily orally for 30 days at dose level of 5.0 mg/kg or 25.0 mg/kg.
# Disease was induced in the mice by the injection of the encephalitogenic emulsion (MOG/CFA). Laquinimod was administered orally for 30 consecutive days from the initiation of the study.
# EAE induction EAE was induced by injecting the encephalitogenic mixture (emulsion) consisting of MOG (150.0 μg/mouse). A volume of 0.2 ml of emulsion was injected subcutaneously into the flanks of the mice. Pertussis toxin was injected intraperitoneally on the day of induction and 48 hours later (total amount was 0300 μg/mouse in 0.2 ml dosage volume).
# The emulsion (for groups 2 and 3 and groups 1 and 4 to 8) were made from equal parts of oil and liquid portions (1:1) in two syringes connected to each other with Leur lock, transferred to insulin syringe and 0.2 ml was injected to the right flank of each mouse. The dose of the MOG in all the groups (1 to 8) was 150 μg/mouse.
# The test concentrations of laquinimod were prepared in purified water. For high dose (25.0 mg/kg) 2.5 mg/mL stock solution were prepared (groups #3, 6 and 8). The stock solutions were diluted 1:5 to yield 0.5 mg/mL for dose level of 5.0 mg/kg for groups 5 and 7. Laquinimod was administered to the respective groups by gavage at a volume of 0.2 ml/mouse.
# Every day one tube was thawed and brought to RT.
# Clinical signs Scaring of EAE clinical signs was started from Day 10 post EAE induction and was continued daily until Day 30. The clinical signs were recorded according to a grading system described in the table 11 below
# mice having scores of 1 and above were considered sick. When the first clinical sign appeared all mice were given food soaked in water, which was spread on different places on the bedding of the cages. An animal which continued to have score 4 for three days was killed on humane grounds and given score 5 on the next day. For calculation purposes, the score of animals that were sacrificed or died was carried forward.
# • The number of sick animals in each group were summed. • The incidence of disease was calculated as
# • The number of dead or moribund animals in each group were summed. • The mortality of disease was calculated as
# • The mean duration of disease expressed in days was calculated as
# • The mean onset of disease expressed in days was calculated as
# • The mean maximal score (MMS) of each group was calculated as
# • The daily scores of each mouse in the test group were summed and the Individual mean daily score (IMS) was calculated as […]
# [1] = LAQ 0.01 mg/kg/day oral, alone or + GA Blocking 0.5 mg/kg
# [2] = LAQ 0.1 mg/kg/day oral, alone or + GA Blocking 0.5 mg/kg
# [3] = LAQ 5.0 mg/kg oral daily 30 d, alone or + GA 250 mg/kg s.c. daily 10 d
# [4] = LAQ 25.0 mg/kg oral daily 30 d, alone or + GA 250 mg/kg s.c. daily 10 d
# [5] = GA blocking 0.5 mg/kg (sub-optimal dose), with encephalitogen
# [6] = GA blocking 12.5 mg/kg once with encephalitogen, alone or + LAQ 25.0 mg/kg oral daily 30 d
# [7] = GA blocking 12.5 mg/kg once with encephalitogen, alone or + LAQ 25.0 mg/kg oral daily 30 d, listed as GA blocking
compound,measurement,setting,value
CCN(C(=O)c1c(O)c2c(Cl)cccc2n(C)c1=O)c1ccccc1 [laquinimod],% Inhibition 1 (incidence),MSCH-induced EAE; [1],0.0%
same,GMS % Inhibition 3,MSCH-induced EAE; [1],16.7%
same,GMS value,MSCH-induced EAE; [1],3.5 ± 0.9
same,Incidence,MSCH-induced EAE; [1],10/10
same,MMS % Inhibition 2,MSCH-induced EAE; [1],4.0%
same,MMS value,MSCH-induced EAE; [1],4.8 ± 0.4
same,Mean Duration,MSCH-induced EAE; [1],11.5 ± 0.8 days
same,Mean Onset,MSCH-induced EAE; [1],12.5 ± 0.8 days
same,% Inhibition 1 (incidence),MSCH-induced EAE; [2],10.0%
same,GMS % Inhibition 3,MSCH-induced EAE; [2],31.0%
same,GMS value,MSCH-induced EAE; [2],2.9 ± 1.5
same,Incidence,MSCH-induced EAE; [2],9/10
same,MMS % Inhibition 2,MSCH-induced EAE; [2],18.0%
same,MMS value,MSCH-induced EAE; [2],4.2 ± 1.7
same,Mean Duration,MSCH-induced EAE; [2],9.8 ± 4.0 days
same,Mean Onset,MSCH-induced EAE; [2],14.2 ± 4.0 days
same,% Inhibition 1 (incidence),MSCH-induced EAE; LAQ 0.3 mg/kg/day oral,0.0%
same,GMS % Inhibition 3,MSCH-induced EAE; LAQ 0.3 mg/kg/day oral,28.6%
same,GMS value,MSCH-induced EAE; LAQ 0.3 mg/kg/day oral,3.0 ± 1.2
same,Incidence,MSCH-induced EAE; LAQ 0.3 mg/kg/day oral,10/10
same,MMS % Inhibition 2,MSCH-induced EAE; LAQ 0.3 mg/kg/day oral,16.0%
same,MMS value,MSCH-induced EAE; LAQ 0.3 mg/kg/day oral,4.2 ± 1.0
same,Mean Duration,MSCH-induced EAE; LAQ 0.3 mg/kg/day oral,10.8 ± 2.0 days
same,Mean Onset,MSCH-induced EAE; LAQ 0.3 mg/kg/day oral,13.2 ± 2.0 days
same,Mortality,MSCH-induced EAE; LAQ 0.3 mg/kg/day oral,6/10
same,% Inhibition 1 (incidence),MSCH-induced EAE; LAQ 1.0 mg/kg/day oral,0.0%
same,GMS % Inhibition 3,MSCH-induced EAE; LAQ 1.0 mg/kg/day oral,38.1%
same,GMS value,MSCH-induced EAE; LAQ 1.0 mg/kg/day oral,2.6 ± 1.1
same,Incidence,MSCH-induced EAE; LAQ 1.0 mg/kg/day oral,10/10
same,MMS % Inhibition 2,MSCH-induced EAE; LAQ 1.0 mg/kg/day oral,28.0%
same,MMS value,MSCH-induced EAE; LAQ 1.0 mg/kg/day oral,3.6 ± 0.0
same,Mean Duration,MSCH-induced EAE; LAQ 1.0 mg/kg/day oral,10.7 ± 1.9 days
same,Mean Onset,MSCH-induced EAE; LAQ 1.0 mg/kg/day oral,13.0 ± 2.0 days
same,Mortality,MSCH-induced EAE; LAQ 1.0 mg/kg/day oral,3/10
same,Mortality,"MSCH-induced EAE; mouse, in vivo",7/10 and 8/10
same,% Inhibition 1 (incidence),MOG-induced EAE; [3],52.9%
same,GMS % Inhibition 3,MOG-induced EAE; [3],71.4%
same,GMS value,MOG-induced EAE; [3],0.6 ± 0.9
same,Incidence,MOG-induced EAE; [3],8/10
same,MMS % Inhibition 2,MOG-induced EAE; [3],55.9%
same,MMS value,MOG-induced EAE; [3],1.5 ± 1.8
same,Mean Duration,MOG-induced EAE; [3],4.2 ± 6.0 days
same,Mean Onset,MOG-induced EAE; [3],26.9 ± 6.0 days
same,Mortality,MOG-induced EAE; [3],0/20
same,% Inhibition 1 (incidence),MOG-induced EAE; [4],88.2%
same,GMS % Inhibition 3,MOG-induced EAE; [4],95.2%
same,GMS value,MOG-induced EAE; [4],0.1 ± 0.4
same,Incidence,MOG-induced EAE; [4],2/20
same,MMS % Inhibition 2,MOG-induced EAE; [4],91.2%
same,MMS value,MOG-induced EAE; [4],0.3 ± 1.0
same,Mean Duration,MOG-induced EAE; [4],0.8 ± 2.6 days
same,Mean Onset,MOG-induced EAE; [4],30.3 ± 2.6 days
same,Mortality,MOG-induced EAE; [4],0/20
"L-glutamic acid polymer with L-alanine, L-lysine and L-tyrosine, acetate (salt) [GA]",% Inhibition 1 (incidence),MSCH-induced EAE; [5],30.0%
same,GMS % Inhibition 3,MSCH-induced EAE; [5],61.9%
same,GMS value,MSCH-induced EAE; [5],1.6 ± 1.5
same,Incidence,MSCH-induced EAE; [5],7/10
same,MMS % Inhibition 2,MSCH-induced EAE; [5],42.0%
same,MMS value,MSCH-induced EAE; [5],2.9 ± 2.1
same,Mean Duration,MSCH-induced EAE; [5],5.8 ± 4.5 days
same,Mean Onset,MSCH-induced EAE; [5],17.0 ± 4.9 days
same,% Inhibition 1 (incidence),MOG-induced EAE; GA 250 mg/kg s.c. daily 10 d,23.5%
same,GMS % Inhibition 3,MOG-induced EAE; GA 250 mg/kg s.c. daily 10 d,38.1%
same,GMS value,MOG-induced EAE; GA 250 mg/kg s.c. daily 10 d,1.3 ± 1.1
same,Incidence,MOG-induced EAE; GA 250 mg/kg s.c. daily 10 d,13/20
same,MMS % Inhibition 2,MOG-induced EAE; GA 250 mg/kg s.c. daily 10 d,26.5%
same,MMS value,MOG-induced EAE; GA 250 mg/kg s.c. daily 10 d,2.5 ± 1.9
same,Mean Duration,MOG-induced EAE; GA 250 mg/kg s.c. daily 10 d,8.3 ± 6.7 days
same,Mean Onset,MOG-induced EAE; GA 250 mg/kg s.c. daily 10 d,22.5 ± 6.7 days
same,% Inhibition 1 (incidence),MOG-induced EAE; [6],52.9%
same,GMS value,MOG-induced EAE; [6],0.5 ± 0.9
same,Incidence,MOG-induced EAE; [6],8/20
same,MMS % Inhibition 2,MOG-induced EAE; [6],70.6%
same,Mean Duration,MOG-induced EAE; [6],4.3 ± 6.3 days
same,Mean Onset,MOG-induced EAE; [6],26.6 ± 6.4 days
same,GMS % Inhibition 3,MOG-induced EAE; [7],76.2%
same,MMS value,MOG-induced EAE; [7],1.0 ± 1.5
same,GMS % Inhibition 3,"MOG-induced EAE; GA blocking 12.5 mg/kg once with encephalitogen, alone or + LAQ 25.0 mg/kg oral daily 30 d, listed as GA-Block",(76.2) %
